{"source": "patent US12247022B2", "about": "“Combinations for treatment of NASH/NAFLD and related diseases” (Pfizer Inc., priority 2018, dated 2025)", "assay_type_in_all_cases": "in vivo, rat", "key": {"[1]": {"system": "fatty acid synthase (FASN)", "assay": "Hepatic lipogenic gene expression (qPCR), Western diet fed rats: FASN", "conditions": "Actb housekeeping gene", "method": "A randomized, vehicle-controlled, 8-parallel arm study was conducted in male Sprague-Dawley rats (Charles River (Boston, MA)) to obtain circulating and hepatic TG levels. Standard laboratory conditions were used to house 96 rats (˜200 g); they were double housed and kept under 12:12-hour reverse light-dark schedule (lights off at 8:00 AM). Rats were randomized into chow or Western diet groups and dose groups upon arrival and were given a 14-day lead-in period on either standard rat chow or Western diet prior to the start of the study. Standard Laboratory Rodent chow diet, 5053, was from LabDiet (PMI, St Louis, Missouri). Western Diet, D12079Bi, was from Research Diets (New Brunswick, New Jersey).\nStarting on Day 1 of the study, rats were dosed orally (10 mL/kg) with either vehicle control (0.5% MC (wt/volume %) in dionized water), low or high doses of Compound A (1 mg/kg or 10 mg/kg QD, respectively), low or high doses of Compound D (5 mg/kg or 30 mg/kg BID respectively), or co-administration of low doses (Compound A at 1 mg/kg QD and Compound D at 5 mg/kg BID), or co-administration of high doses (Compound A at 10 mg/kg QD and Compound D at 30 mg/kg BID) […]\nAnother portion of the pulverized liver was processed and analyzed for lipogenic gene expression. Rat taqman probes against ACC1, FASN, SCD1, PCSK9 and SREBP-1c were all assessed using Actb as housekeeping gene on qPCR."}, "Collagen": {"system": "Collagen", "assay": "Hepatic Picrosirius red staining (collagen), CDAHFD fed rats", "conditions": "twice daily for 6 weeks; Compound A 5 mg/kg, Compound D 30 mg/kg, or co-administration; 12 weeks on CDAHFD", "method": "(§1) A randomized, vehicle-controlled, 5-parallel arm study was conducted in male Wistar-Han rats (Charles River (Boston, MA)) fed a choline-deficient and high fat diet (CDAHFD) (Research diets; A16092003) to identify differences in improvements in markers of hepatic inflammation and fibrosis when administering either Compound A or Compound D alone as monotherapy or in combination. Standard laboratory conditions were used to house 60 rats (˜200 g); they were double housed and kept under 12:12-hour reverse light-dark schedule (lights off at 8:00 AM). Rats were fed choline deficient and high fat diet (CDAHFD) beginning 6-weeks prior to initiation of the study. Rats, randomized into 4 dosing groups (n=12/group), received twice daily administration of vehicle, Compound A (5 mg/kg) monotherapy, Compound D (30 mg/kg) monotherapy, or co-administration Compound A (5 mg/kg) and Compound D (30 mg/kg) for a period of 6-weeks. […] Histology was assessed following 6-weeks of drug administration which corresponded to 12 weeks on the CDAHFD. […]\nFollowing the 12-weeks on CDAHFD, the animals were sacrificed by CO2 asphyxiation. […] A portion of the pulverized liver sample from each animal was processed and analyzed for gene expression markers of fibrogenesis. Rat taqman probes against […]SMA and COL1A1 were all assessed using Actb as housekeeping gene on qPCR. […]"}, "[2]": {"system": "alpha smooth muscle actin (αSMA)", "assay": "Hepatic αSMA gene expression (qPCR), CDAHFD fed rats", "conditions": "twice daily for 6 weeks, Compound A 5 mg/kg, Compound D 30 mg/kg, or co-administration, Actb", "method": "as §1\n(§2) Following the 12-weeks on CDAHFD, the animals were sacrificed by CO2 asphyxiation. […] A portion of the pulverized liver sample from each animal was processed and analyzed for gene expression markers of fibrogenesis. Rat taqman probes against […]SMA and COL1A1 were all assessed using Actb as housekeeping gene on qPCR."}, "COL1A1": {"system": "COL1A1", "assay": "Hepatic COL1A1 gene expression (qPCR), CDAHFD fed rats", "conditions": "twice daily for 6 weeks, Compound A 5 mg/kg, Compound D 30 mg/kg, or co-administration, Actb", "method": "as §1, §2"}}, "data": [{"smiles": "COc1cc(C(=O)N2CCC3(CC2)CC(=O)c2c(cnn2C(C)C)C3)cc(-c2ccc(C(=O)O)cc2)n1", "note": "[Compound A, 4-(4-(1-isopropyl-7-oxo-1,4,6,7-tetrahydrospiro[indazole-5,4′-piperidine]-1′-carbonyl)-6-methoxypyridin-2-yl)benzoic acid]", "values": [{"measurement": "hepatic FASN gene expression relative to Western Diet fed and vehicle treated animals", "setting": "[1]; Compound A high dose only (10 mg/kg QD)", "result": "trended to further increase"}, {"measurement": "reduction of Picosrius red (PSR) staining", "setting": "Collagen", "result": 26, "unit": "%"}, {"measurement": "hepatic αSMA gene expression", "setting": "[2]", "result": "reduced"}, {"measurement": "hepatic collagen A1A (COL1A1) gene expression", "setting": "COL1A1", "result": "reduced"}]}, {"smiles": "CCOc1cccnc1Oc1cncc(-c2ncc(C(=O)N[C@H]3CCOC3)cn2)c1", "note": "[Compound D, (S)-2-(5-((3-ethoxypyridin-2-yl)oxy)pyridin-3-yl)-N-(tetrahydrofuran-3-yl)pyrimidine-5-carboxamide]", "values": [{"measurement": "hepatic FASN gene expression relative to Western Diet fed and vehicle treated animals", "setting": "[1]; Day 28 liver", "result": "decreased expression"}, {"measurement": "reduction of Picosrius red (PSR) staining", "setting": "Collagen", "result": 20, "unit": "%"}, {"measurement": "hepatic αSMA gene expression", "setting": "[2]", "result": "reduced"}, {"measurement": "hepatic collagen A1A (COL1A1) gene expression", "setting": "COL1A1", "result": "reduced"}]}]}
